In US7425557B2, “Inhibitors of glycogen synthase kinase 3” (Novartis Vaccines and Diagnostics, Inc., priority 1998, dated 2008):

The molecules below were run against human GSK3β (Homo sapiens, UniProt P49841) (assay: Screening for GSK3 inhibitory activity using a cell-free assay). Conditions: read-out: IC50 with respect to GSK3.
Format: biochemical
Procedure: This amount represents the amount of radiolabeled phosphate incorporated into the peptide substrate.
The captured radiolabeled peptide substrate can be quantitated in a scintillation counter using known methods. […] If an inhibitor is present during the reaction, GSK3 activity will be reduced, and a smaller quantity of radiolabeled phosphate will thus be incorporated into the peptide substrate.
Pyrimidine and pyridine compounds of the present invention were dissolved in DMSO, then tested for inhibition of human GSK3β (the nucleotide sequence for human GSK3β appears in GenBank under Accession No. L33801).
While the reaction was proceeding, streptavidin-coated Labsystems “Combiplate 8” capture plates (Labsystems, Helsinki, Finland) were blocked by incubating them with 300 μl/well of PBS containing 1% bovine serum albumin for at least one hour at room temperature. The blocking solution was then removed by aspiration, and the capture plates were filled with 100 ul/well of stopping reagent (50 μM ATP/20 mM EDTA).
When the three hour enzyme reaction was finished, triplicate 100 μl aliquots of each reaction mix were transferred to three wells containing stopping solution, one well on each of the three capture plates, and the well contents were mixed well. […] Finally, 200 μl of Microscint-20 scintillation fluid was added to each well of the plate. The plates were coated with plate sealers, then left on a shaker for 30 minutes. Each capture plate was counted in a Packard TopCount scintillation counter (Meridian, Conn.) and the results were plotted as a function of compound concentration.

human GSK3β, sequence (P49841 whole entry): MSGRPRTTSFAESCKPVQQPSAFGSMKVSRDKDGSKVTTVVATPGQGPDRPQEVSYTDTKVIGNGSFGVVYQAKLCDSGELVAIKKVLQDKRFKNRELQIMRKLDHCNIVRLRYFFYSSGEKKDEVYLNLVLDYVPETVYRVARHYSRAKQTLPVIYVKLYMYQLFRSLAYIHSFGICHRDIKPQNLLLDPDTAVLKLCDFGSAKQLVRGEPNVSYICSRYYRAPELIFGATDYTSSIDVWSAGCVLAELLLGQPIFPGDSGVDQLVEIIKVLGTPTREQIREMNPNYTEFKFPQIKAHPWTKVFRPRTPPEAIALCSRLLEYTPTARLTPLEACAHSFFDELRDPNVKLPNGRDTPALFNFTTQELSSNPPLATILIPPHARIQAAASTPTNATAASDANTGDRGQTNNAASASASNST

Row | SMILES | IC50 [µM]
1 | N#Cc1ccc(-c2nc(NCCNc3ccc([N+](=O)[O-])cn3)nc(-c3ccc(C#N)cc3)c2C(=O)O)cc1 [4,6-bis(4-cyanophenyl)-2-({2-[(5-nitro(2-pyridyl))amino]ethyl}-amino)pyrimidine-5-carboxylic acid] | ≤ 1
2 | O=C(O)c1c(-c2ccc([N+](=O)[O-])cc2)nc(NCCNc2ccc([N+](=O)[O-])cn2)nc1-c1ccc([N+](=O)[O-])cc1 [4,6-bis(4-nitrophenyl)-2-({2-[(5-nitro(2-pyridyl))amino]ethyl}amino)pyrimidine-5-carboxylic acid] | ≤ 10
3 | N#Cc1cnc(NCCNc2ccc([N+](=O)[O-])cn2)nc1-c1ccc(Cl)cc1Cl [4-(2,4-dichlorophenyl)-2-({2-[(5-nitro(2-pyridyl))amino]-ethyl}amino)pyrimidine-5-carbonitrile] | ≤ 10
4 | COc1ccccc1-c1nc(NCCNc2ccc([N+](=O)[O-])cn2)ncc1C(=O)O [4-(2-methoxyphenyl)-2-({2-[(5-nitro(2-pyridyl))amino]ethyl}amino)pyrimidine-5-carboxylic acid] | ≤ 10
5 | COc1cccc(CCNc2nccc(-c3ccc(C(N)=O)cc3)n2)c1OC [4-(2-{[2-(2,3-dimethoxyphenyl)ethyl]amino}pyrimidin-4-yl)benzamide] | ≤ 1
6 | COc1ccc(OC)c(CCNc2nccc(-c3ccc(C(N)=O)cc3)n2)c1 [4-(2-{[2-(2,5-dimethoxyphenyl)ethyl]amino}pyrimidin-4-yl)benzamide] | ≤ 1
7 | COc1ccc(OC)c(CCNc2nccc(-c3ccc(C#N)cc3)n2)c1 [4-(2-{[2-(2,5-dimethoxyphenyl)ethyl]amino}pyrimidin-4-yl)benzene-carbonitrile] | ≤ 10
8 | COc1ccccc1CCNc1nccc(-c2ccc(C(N)=O)cc2)n1 [4-(2-{[2-(2-methoxyphenyl)-ethyl]amino}pyrimidin-4-yl)benzamide] | ≤ 1
9 | NC(=O)c1ccc(-c2ccnc(NCCNc3ccccn3)n2)cc1 [4-(2-{[2-(2-pyridylamino)ethyl]-amino}pyrimidin-4-yl)benzamide] | ≤ 1
10 | N#Cc1ccc(-c2ccnc(NCCNc3ccccn3)n2)cc1 [4-(2-{[2-(2-pyridylamino)ethyl]amino}pyrimidin-4-yl)benzenecarbonitrile] | ≤ 10
11 | NC(=O)c1ccc(-c2ccnc(NCCNc3ccc4ccccc4n3)n2)cc1 [4-(2-{[2-(2-quinolylamino)ethyl]amino}pyrimidin-4-yl)benzamide] | ≤ 1
12 | COc1cccc(CCNc2nccc(-c3ccc(C(N)=O)cc3)n2)c1 [4-(2-{[2-(3-methoxyphenyl)ethyl]amino}pyrimidin-4-yl)-benzamide] | ≤ 10
13 | NC(=O)c1ccc(-c2ccnc(NCCc3ccc(F)cc3)n2)cc1 [4-(2-{[2-(4-fluorophenyl)ethyl]amino}pyrimidin-4-yl)benzamide] | ≤ 10
14 | NC(=O)c1ccc(-c2ccnc(NCCc3ccc([N+](=O)[O-])cc3)n2)cc1 [4-(2-{[2-(4-nitrophenyl)ethyl]amino}pyrimidin-4-yl)benzamide] | ≤ 10
15 | NC(=O)c1ccc(-c2ccnc(NCCNc3ncccn3)n2)cc1 [4-(2-{[2-(pyrimidin-2-ylamino)ethyl]amino}pyrimidin-4-yl)benzamide] | ≤ 1
16 | NC(=O)c1ccc(-c2ccnc(NCCCOc3ccc(Cl)cc3Cl)n2)cc1 [4-(2-{[3-(2,4-dichlorophenoxy)propyl]amino}pyrimidin-4-yl)benzamide] | ≤ 10
17 | NC(=O)c1ccc(-c2ccnc(NCCCOc3ccc(Cl)c(Cl)c3)n2)cc1 [4-(2-{[3-(3,4-dichlorophenoxy)-propyl]amino}pyrimidin-4-yl)benzamide] | ≤ 10
18 | NC(=O)c1ccc(-c2ccnc(NCCCOc3cccc(Br)c3)n2)cc1 [4-(2-{[3-(3-bromophenoxy)propyl]-amino}pyrimidin-4-yl)benzamide] | ≤ 10
19 | COc1cccc(OCCCNc2nccc(-c3ccc(C(N)=O)cc3)n2)c1 [4-(2-{[3-(3-methoxyphenoxy)propyl]-amino}pyrimidin-4-yl)benzamide] | ≤ 10
20 | Cc1cccc(OCCCNc2nccc(-c3ccc(C(N)=O)cc3)n2)c1 [4-(2-{[3-(3-methylphenoxy)propyl]amino}pyrimidin-4-yl)benzamide] | ≤ 10
21 | NC(=O)c1ccc(-c2ccnc(NCCCOc3cccc(-c4ccccc4)c3)n2)cc1 [4-(2-{[3-(3-phenylphenoxy)propyl]-amino}pyrimidin-4-yl)benzamide] | ≤ 10
22 | NC(=O)c1ccc(-c2ccnc(NCCCc3nc(Cl)c(Cl)[nH]3)n2)cc1 [4-(2-{[3-(4,5-dichloroimidazolyl)propyl]amino}pyrimidin-4-yl)benzamide] | ≤ 1
23 | Oc1ccc(-c2ccnc(NCCCc3nc(Cl)c(Cl)[nH]3)n2)cc1 [4-(2-{[3-(4,5-dichloroimidazolyl)propyl]amino}pyrimidin-4-yl)phenol] | ≤ 1

Row | SMILES | IC50 [µM]
24 | NC(=O)c1ccc(-c2ccnc(NCCCOc3ccc(Cl)cc3)n2)cc1 [4-(2-{[3-(4-chlorophenoxy)propyl]amino}pyrimidin-4-yl)benzamide] | ≤ 10
25 | Oc1ccc(-c2ccnc(NCCCOc3ccc(Cl)cc3)n2)cc1 [4-(2-{[3-(4-chlorophenoxy)propyl]amino}pyrimidin-4-yl)phenol] | ≤ 10
26 | COc1ccc(OCCCNc2nccc(-c3ccc(C(N)=O)cc3)n2)cc1 [4-(2-{[3-(4-methoxyphenoxy)propyl]-amino}pyrimidin-4-yl)benzamide] | ≤ 1
27 | NC(=O)c1ccc(-c2ccnc(NCc3ccc(Cl)cc3Cl)n2)cc1 [4-(2-{[(2,4-dichlorophenyl)methyl]-amino}pyrimidin-4-yl)benzamide] | ≤ 10
28 | COc1cccc(OC)c1CNc1nccc(-c2ccc(C(N)=O)cc2)n1 [4-(2-{[(2,6-dimethoxyphenyl)-methyl]amino}pyrimidin-4-yl)benzamide] | ≤ 10
29 | COc1cc(CNc2nccc(-c3ccc(C(N)=O)cc3)n2)cc(OC)c1OC [4-(2-{[(3,4,5-trimethoxyphenyl)methyl]amino}pyrimidin-4-yl)benzamide] | ≤ 10
30 | COc1ccc(CNc2nccc(-c3ccc(C(N)=O)cc3)n2)cc1OC [4-(2-{[(3,4-dimethoxyphenyl)methyl]amino}-pyrimidin-4-yl)benzamide] | ≤ 10
31 | NC(=O)c1ccc(-c2ccnc(NCc3cc(Cl)cc(Cl)c3)n2)cc1 [4-(2-{[(3,5-dichlorophenyl)methyl]amino}pyrimidin-4-yl)benzamide] | ≤ 10
32 | NC(=O)c1ccc(-c2ccnc(NCc3cccc(Br)c3)n2)cc1 [4-(2-{[(3-bromophenyl)methyl]amino}pyrimidin-4-yl)benzamide] | ≤ 10
33 | NC(=O)c1ccc(-c2ccnc(NCc3cccc(Cl)c3)n2)cc1 [4-(2-{[(3-chlorophenyl)methyl]amino}pyrimidin-4-yl)benzamide] | ≤ 10
34 | COc1cccc(CNc2nccc(-c3ccc(C(N)=O)cc3)n2)c1 [4-(2-{[(3-methoxyphenyl)methyl]-amino}pyrimidin-4-yl)benzamide] | ≤ 10
35 | Cc1cccc(CNc2nccc(-c3ccc(C(N)=O)cc3)n2)c1 [4-(2-{[(3-methylphenyl)-methyl]amino}pyrimidin-4-yl)benzamide] | ≤ 10
36 | NC(=O)c1ccc(-c2ccnc(NCc3cccc([N+](=O)[O-])c3)n2)cc1 [4-(2-{[(3-nitro-phenyl)methyl]amino}pyrimidin-4-yl)benzamide] | ≤ 10
37 | CNCc1cccc(-c2cccc(CNc3nccc(-c4ccc(C(N)=O)cc4)n3)c2)c1 [4-(2-{[(3-{3-[(methylamino)methyl]phenyl}-phenyl)methyl]amino}pyrimidin-4-yl)benzamide] | ≤ 10
38 | NC(=O)c1ccc(-c2ccnc(NCc3ccc(N)cc3)n2)cc1 [4-(2-{[(4-aminophenyl)methyl]amino}-pyrimidin-4-yl)benzamide] | ≤ 10
39 | NC(=O)c1ccc(-c2ccnc(NCc3ccc(Br)cc3)n2)cc1 [4-(2-{[(4-bromophenyl)methyl]amino}pyrimidin-4-yl)benzamide] | ≤ 10
40 | N#Cc1ccc(CNc2nccc(-c3ccc(C(N)=O)cc3)n2)cc1 [4-(2-{[(4-cyanophenyl)methyl]amino}pyrimidin-4-yl)benzamide] | ≤ 10
41 | COc1ccc(CNc2nccc(-c3ccc(C(N)=O)cc3)n2)cc1 [4-(2-{[(4-methoxyphenyl)methyl]amino}pyrimidin-4-yl)benzamide] | ≤ 10
42 | Cc1cnc(CNc2nccc(-c3ccc(C(N)=O)cc3)n2)cn1 [4-(2-{[(5-methylpyrazin-2-yl)methyl]amino}pyrimidin-4-yl)benzamide] | ≤ 10
43 | N#Cc1cnc(NCCNc2ccc([N+](=O)[O-])cn2)nc1-c1ccc(Cl)c(Cl)c1 [4-(3,4-dichlorophenyl)-2-({2-[(5-nitro(2-pyridyl))amino]ethyl}amino)pyrimidine-5-carbonitrile] | ≤ 10
44 | N#Cc1cccc(-c2nc(NCCNc3ccc([N+](=O)[O-])cn3)nc(-c3ccc([N+](=O)[O-])cc3)c2C(=O)O)c1 [4-(3-cyanophenyl)-2-({2-[(5-nitro(2-pyridyl))amino]ethyl}amino)-6-(4-nitrophenyl)pyrimidine-5-carboxylic acid] | ≤ 10
45 | O=C(O)c1c(-c2ccc([N+](=O)[O-])cc2)nc(NCCNc2ccc([N+](=O)[O-])cn2)nc1-c1cccc(O)c1 [4-(3-hydroxyphenyl)-2-({2-[(5-nitro(2-pyridyl))amino]ethyl}amino)-6-(4-nitrophenyl)pyrimidine-5-carboxylic acid] | ≤ 1
